Data from patent US11260072B2, “MicroRNA-based methods and assays for osteocarcinoma” (3-D Matrix, Ltd., priority 2011, dated 2022).
“Also recorded” adds a separate entry of the source.

Key:
SGMS2 = SGMS2 mRNA in 143B-luc tumors of LNA-133a-treated mice; type: in vivo, human
Source text: (§1) RNA isolation and quantitative real-time RT-PCR of mRNAs and miRNAs. Total RNA was purified from cells and tumor tissues with an RNeasy Mini Kit and RNase-Free DNase Set (QIAGEN). For quantitative polymerase chain reaction (qPCR) of mRNAs, cDNA was synthesized using High-Capacity cDNA Reverse Transcription Kit (Applied Biosystems). For each qPCR reaction, equal amounts of cDNA were mixed with Platinum SYBER Green qPCR SuperMix (Invitrogen) and specific primers (Table 1). Gene expression levels were normalized by beta actin (ACTB) or glyceraldehyde 3-phosphate dehydrogenase (GAPDH). For qPCR of miRNAs, miRNA was converted to cDNA using the TaqMan MicroRNA Reverse Transcription Kit (Applied Biosystems). RNU6B small nuclear RNA was amplified as an internal control. qPCR was performed using each miRNA-specific probe included with the TaqMan MicroRNA Assay on a Real-Time PCR System 7300 and SDS software (Applied Biosystems).
Monitoring tumor growth, lung metastasis, and toxicity with/without LAN-anti-miR-133a. […] Ten minutes later, photons from firefly luciferase were counted using the IVIS imaging system (Xenogen Corp.) according to the manufacturer's instructions. […] The development of subsequent lung metastasis was monitored once a week in vivo by the bioluminescent imaging described above for 5 weeks. All data were analyzed using LivingImage software (version 2.50, Xenogen). […]

[1] = assessment of toxicity in LNA-treated tumor-bearing mice; type: in vivo; details: during the observation period
Method: (§2) Monitoring tumor growth, lung metastasis, and toxicity with/without LAN-anti-miR-133a. For the assessment of tumorigenicity between CD133^high and CD133^low HOS-Luc cells, NOD/SCID mice were injected with D-luciferin (150 mg/kg, Promega) by intraperitoneal injection. Ten minutes later, photons from firefly luciferase were counted using the IVIS imaging system (Xenogen Corp.) according to the manufacturer's instructions. Each experimental condition included 5 animals per group and monitoring once a week. For the evaluation of LNA-anti-miR-133a administration into spontaneous lung metastasis of osteosarcoma model mice, individual mice were injected with 10 mg/kg of LNA-anti-miR-133a or saline via the tail vain. LNA were injected on following days 4, 11, 18, 25, 32 postinoculation of 143B-Luc cells. Each experimental condition included 10 animals per group. The development of subsequent lung metastasis was monitored once a week in vivo by the bioluminescent imaging described above for 5 weeks. All data were analyzed using LivingImage software (version 2.50, Xenogen). On day 36, the primary tumor and lung in 5 mice of each group were resected at necropsy for their weight, bioluminescent, and histological analyses. The blood examination, weight of whole body as well as heart, liver, and skeletal muscle, and histopathological examination were performed for the assessment of toxicity.

CD133^high cells [2] = experiment: cytotoxicity assay (drug sensitivity) after LNA transfection; type: cell-based, human; details: DOX 0.4 μM or CDDP 5 μM, 48 h, 24 h after transfection
Method: Cell proliferation and cytotoxity assay. Cell proliferation rates and cell viability as an indicator for the relative sensitivity of the cells to doxorubicin, cisplatin, and methotrexate were determined using TetraColor ONE Cell proliferation Assay System (Seikagaku) according to the manufacturer's instructions. […] Triplicate wells were used for each treatment group. Absorbance was measured at 450 nm with a reference wavelength at 650 nm on EnVision (Wallac). The relative number of viable cells was expressed as the percent of cell viability.
(§3) Transfection with synthetic miRNAs, LNAs, and siRNAs. Synthetic hsa-miRs (Pre-miR-hsa-miR-1, -10b, -133a, and negative control (NC; Applied Biosystems, Table 2) and locked nucleic acids (LNAs) (LNA-1, -10b, -133a, and negative control, Exiqon, Table 3) were transfected into each type of cells at 30 nM each (final concentration) using DharmaFECT 1(GE Healthcare). Synthetic siRNAs (Bonac corporation, Table 4) were transfected into each type of cells at 100 nM each (final concentration) using DharmaFECT 1 (GE Healthcare). After 24 hours of incubation, cells were treated with chemotherapeutic agents for cytotoxicity assay or reseeded into invasion chambers for invasion assay.

[3] = system: CD133^high SaOS2 and HOS populations; experiment: invasion assay after LNA transfection; type: cell-based, human
Method: Invasion assay. Invasion assays were performed by using 24-well BD BioCoat Invasion Chambers with Matrigel (Becton-Dickinson). 1×10^5 cells, suspended in 500 μL DMEM or RPMI 1640 medium without FBS, were added to the upper chamber, and DMEM or RPMI 1640 medium with 10% FBS was added to the lower chamber. After incubation for 24 h or 36 h, the cells on the upper surface of the filter were completely removed by wiping them with cotton swabs. The filters were fixed in methanol and stained with 1% toluidine blue in 1% sodium tetraborate (Sysmex). Filters were then mounted onto slides, and cells on lower surfaces were counted. Each assay was performed in triplicate.
as §3

miR-133a [4] = experiment: miR-133a expression in 143B-luc tumors (qRT-PCR); type: in vivo, human; details: vs saline-treated mice
Source text: as §1, with “RNU6B small nuclear RNA was amplified as an internal control. qPCR was performed using each miRNA-specific probe included with the TaqMan MicroRNA Assay on a Real-Time PCR System 7300 and SDS software (Applied Biosystems).” left out
To extend the in vitro findings and to determine whether silencing of miR-133a could be an effective therapeutic option for osteosarcoma treatment, the effect of LNA-133a on a spontaneous lung metastasis model of osteosarcoma was examined. […] The implanted tumor growth and the presence of distant metastases were analyzed weekly for luciferase bioluminescence using an in vivo imaging system (IVIS). […] At 5 weeks, half the mice in each group were euthanized for further analysis; the remaining mice were monitored for survival.

CD133^high cells [5] = experiment: apoptotic cell count (Hoechst staining) after LNA transfection; type: cell-based, human; details: compared to control CD133high cells; CDDP 5 μM, 48 h
miR-133a [6] = experiment: silencing of miR-133a in LNA-transfected CD133high cells (real-time RT-PCR); type: cell-based, human; details: CD133high SaOS2 and HOS cells, LNA 30 nM
Source text: as §1
(§4) Transfection with synthetic miRNAs, LNAs, and siRNAs. […]

[7] = system: CD133^high SaOS2 and HOS cells; experiment: cell proliferation after LNA transfection; type: cell-based, human; details: day 4 after transfection
Method: Cell proliferation and cytotoxity assay. Cell proliferation rates and cell viability as an indicator for the relative sensitivity of the cells to doxorubicin, cisplatin, and methotrexate were determined using TetraColor ONE Cell proliferation Assay System (Seikagaku) according to the manufacturer's instructions. Cells growing in the logarithmic phase were seeded in 96-well plates (5×10^3/well), allowed to attach overnight, and then were treated with varying doses of doxorubicin (Sigma), cisplatin (Alexis), and methotrexate (Sigma) for 72 h. Triplicate wells were used for each treatment group. Absorbance was measured at 450 nm with a reference wavelength at 650 nm on EnVision (Wallac). The relative number of viable cells was expressed as the percent of cell viability.
as §4

143B-luc = experiment: spontaneous lung metastasis model of osteosarcoma (143B-luc implanted orthotopically into tibia); type: in vivo, athymic nude mice
Method: Tumor transplantation experiments. Animal experiments were performed in compliance with the guidelines of the Institute for Laboratory Animal Research, National Cancer Center Research Institute. Athymic nude mice or NOD/SCID mice (CLEA Japan) were purchased at 4 weeks of age and given at least 1 week to adapt to their new environment prior to tumor transplantation. On day 0, mice were anesthetized with 3% isoflurane and the right leg disinfected with 70% ethanol. Cells were aspirated into a 1 mL tuberculin syringe fitted with a 27-G needle. The needle was inserted through the cortex of the anterior tuberosity of the tibia with a rotating movement to avoid cortical fracture. Once the bone was traversed, the needle was inserted further to fracture the posterior cortex of the tibia. A 100 μL volume of solution containing freshly isolated CD133^high and CD133^low HOS-Luc (10^2, 10^3, 10^4, 10^5 cells per site) or 143B-Luc (1.5×10^6) was injected while slowly moving back the needle.
as §2
To extend the in vitro findings and to determine whether silencing of miR-133a could be an effective therapeutic option for osteosarcoma treatment, the effect of LNA-133a on a spontaneous lung metastasis model of osteosarcoma was examined. Experimentally, 1.5×10^6 cells of 143B transfected with firefly luciferase gene (143B-luc) were implanted orthotopically into the right proximal tibia of athymic nude mice. The implanted tumor growth and the presence of distant metastases were analyzed weekly for luciferase bioluminescence using an in vivo imaging system (IVIS). […] To assess the efficacy of the new treatment protocol, results were compared with three control groups (n=10 each): a saline control group, an LNA group, and a CDDP group. At 5 weeks, half the mice in each group were euthanized for further analysis; the remaining mice were monitored for survival.

CD133^high cells [8] = experiment: qPCR of genes associated with stemness, drug resistance and metastasis after LNA transfection; type: cell-based, human; details: β-actin internal control
Source text: as §1, §4

Substance: LNA-133a: locked nucleic acid antisense to hsa-miR-133a-1, 5′-CAGCTGGTTGAAGGGGACCAA-3′ (Exiqon) (LNA-modified oligonucleotide from Exiqon, pattern not given here)
- expression of mRNA for SGMS2 (SGMS2): increased expression
- toxic effects on various tissue including heart, liver, and skeletal muscle [1]: minimal toxic effects
- sensitivity to DOX and CDDP (cell viability) (CD133^high cells [2]): enhanced sensitivity to DOX and CDDP
- invasiveness [3]: decreased the invasiveness
- expression of miR-133a of tumors (miR-133a [4]): reduced miR-133a levels; also recorded: decreased
- apoptotic cell death rate (CD133^high cells [5]): significantly higher apoptotic cell death rate
- efficacy for the silencing of miR-133a (miR-133a [6]): confirmed; also recorded: knock-down
- proliferation rate [7]: suppressed in proliferation rate to the same level of CD133^low cells transfected with LNA-NC
- Luminescence of lung (mean) (143B-luc; IVIS bioluminescence): 1744
- Lung metastasis (mice with metastasis / mice in group) (143B-luc; day 35): 7/10
- Tumor weight (mean) (143B-luc; day 36, LNA-133a 10 mg kg-1 i.v., CDDP i.p.): 3.143 g
- expression of the molecules associated with CD133high phenotypes (CD133^high cells [8]): decreased
